# Assay results as given in patent US6720346B2, “Thiazole benzamide derivatives and pharmaceutical compositions for inhibiting cell proliferation” (Agouron Pharmaceuticals, Inc., priority 2001, dated 2004).
# Where a name gives a salt, the structure may show the parent alone.
# Experiments:
# [1] = system: HCT-116 cell line; test: Inhibition of cell growth, MTT tetrazolium salt assay; type: cell-based; details: for IC50: Homo sapiens, HCT-116, 120 h, MTT, three to five days
# Method in brief: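 HCT-116 cells in McCoy's 5A were dosed 4 h after plating with compounds in 0.5% DMSO and grown 3–5 days at 37 °C. Then 0.2 mg/mL MTT was added for 4 h and formazan absorbance read at 540 nm. IC50/IC90 came from semi-log plots against DMSO-only controls.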
# [2] = molecular target: T1, human CDK4/cyclin D3 (Homo sapiens, UniProt P11802); test: Inhibition of CDK4/cyclin D retinoblastoma kinase activity (Ki; % inhibition); type: biochemical; details: for Ki: apparent Ki, CDK4/cyclin D3, Rb substrate
# T1 construct: made in house; host or cells: insect cells co-infected with baculovirus vectors
# Method in brief: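 Insect-cell-expressed CDK4 with truncated cyclin D3 (1-264), 5 nM, phosphorylating His-tagged Rb fragment (386-928) with 25 μM [32/33P]ATP at pH 7.4, 30 °C, 20 min (60 min for tight binders). Filter capture, phosphorimager read; % inhibition at 30 nM compound, Ki from competitive or tight-binding fits.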
# [3] = molecular target: T2, CDK2/cyclin A (Homo sapiens, UniProt P24941); test: Inhibition of CDK2/cyclin A retinoblastoma kinase activity (Ki; % inhibition); type: biochemical; details: for Ki: apparent Ki, CDK2/cyclin A, Rb substrate
# T2 construct: made in house; host or cells: CDK2: insect cells (baculovirus); cyclin A: E. coli
# Method in brief: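 Radiometric filter assay of CDK2/proteolyzed cyclin A (baculovirus-expressed human CDK2, 10 or 19 nM) phosphorylating an Rb fragment with 25 μM [³²P/³³P]ATP in pH 7.4 HEPES, 2% DMSO, at 30 °C for 60 or 75 min under initial-rate conditions. Library compounds screened at 30 nM for % inhibition; apparent Ki from concentration series fit to competitive or tight-binding inhibition equations.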
# [4] = HCT-116 cells, 0.25 μM compound
# T1 sequence (P11802 whole entry): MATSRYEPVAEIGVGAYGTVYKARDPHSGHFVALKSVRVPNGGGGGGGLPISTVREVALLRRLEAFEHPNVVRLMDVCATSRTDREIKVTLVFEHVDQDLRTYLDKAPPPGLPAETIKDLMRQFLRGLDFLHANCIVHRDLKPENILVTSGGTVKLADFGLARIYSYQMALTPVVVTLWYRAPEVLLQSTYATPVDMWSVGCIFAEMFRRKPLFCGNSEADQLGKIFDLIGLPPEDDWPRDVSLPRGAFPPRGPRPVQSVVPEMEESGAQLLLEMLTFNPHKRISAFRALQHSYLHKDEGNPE
# T1 sequence (P30281 1-264 partner limits assumed): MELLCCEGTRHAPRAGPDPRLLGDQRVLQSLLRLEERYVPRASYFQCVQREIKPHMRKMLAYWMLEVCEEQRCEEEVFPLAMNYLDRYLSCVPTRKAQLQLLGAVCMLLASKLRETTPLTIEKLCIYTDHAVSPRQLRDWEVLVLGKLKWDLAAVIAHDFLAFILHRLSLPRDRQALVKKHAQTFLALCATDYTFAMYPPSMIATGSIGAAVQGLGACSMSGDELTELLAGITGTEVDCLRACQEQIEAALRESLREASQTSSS
Compound,"HCT-116 % Inhibition at 0.25 μM ([1]; HCT-116, at 0.25 μM) [%]",CDK4 % Inhibition at 0.03 μM ([2]; at 0.03 μM) [%],CDK2 % Inhibition at 0.03 μM ([3]; at 0.03 μM) [%],"HCT-116 % Inhibition at 0.1 μM ([1]; HCT-116 cells, 0.1 μM compound) [%]","HCT-116 % Inhibition at 0.25 μM [1, 4] [%]",CDK4 % Inhibition at 0.03 μM ([2]; 0.03 μM compound) [%],CDK2 % Inhibition at 0.03 μM ([3]; 0.03 μM compound) [%],also measured
COc1ccc(NC(=O)c2ccc(Nc3nc(N)c(C(=O)c4c(F)cccc4F)s3)cc2)cc1O [Example G14],50,26,9,–,–,–,–,–
Nc1ccc(CCNC(=O)c2ccc(Nc3nc(N)c(C(=O)c4c(F)cccc4F)s3)cc2)cc1 [Example G105],67,9,3,–,–,–,–,"HCT-116 % Inhibition at 0.1 μM ([1]; HCT-116, at 0.1 μM): 24%"
Nc1nc(Nc2ccc(C(=O)N3CCC(CCO)CC3)cc2)sc1C(=O)c1c(F)cccc1F [Example G63],54,7,4,–,–,–,–,–
Nc1nc(Nc2ccc(C(=O)NC3CCS(=O)(=O)C3)cc2)sc1C(=O)c1c(F)cccc1F (centres unmarked) [Example G120],54,23,14,–,–,–,–,"HCT-116 % Inhibition at 0.1 μM ([1]; HCT-116, at 0.1 μM): 0%"
Nc1nc(Nc2ccc(C(=O)NCc3ccc(OC(F)(F)F)cc3)cc2)sc1C(=O)c1c(F)cccc1F [Example G208],–,–,–,11,56,36,36,–
"Nc1nc(Nc2ccc(C(=O)NCCNc3ccccc3)c(O)c2)sc1C(=O)c1c(F)cccc1F [Example D1, 4-[4-Amino-5-(2,6-difluoro-benzoyl)-thiazol-2-ylamino]-2-hydroxy-N-(2-phenylamino-ethyl)-benzamide]",–,–,–,–,–,–,–,IC50 [1]: 1000 nM; Ki [2]: 17 nM; Ki [3]: 9.4 nM
"CN1C[C@H](O)C[C@H]1CNC(=O)c1ccc(Nc2nc(N)c(C(=O)c3c(F)cccc3F)s2)cc1 [Example A54, 4-{4-Amino-5-(2,6-difluoro-benzoyl)-thiazol-2-ylamino]-N-(4R-hydroxy-1-methyl-pyrrolidin-2S-yl-methyl)-benzamide]",–,–,–,–,–,–,–,IC50 [1]: 600 nM; Ki [2]: 9 nM; Ki [3]: 52 nM
Nc1nc(Nc2ccc(C(=O)Nc3ccccc3)cc2)sc1C(=O)c1c(F)cccc1F [Example G7],80,5,4,–,–,–,–,–
CCC(C)NC(=O)c1ccc(Nc2nc(N)c(C(=O)c3c(F)cccc3F)s2)cc1 (centres unmarked) [Example G148],48,14,5,–,–,–,–,"HCT-116 % Inhibition at 0.1 μM ([1]; HCT-116, at 0.1 μM): 0%"
Nc1nc(Nc2ccc(C(=O)NCCc3ccccc3Cl)cc2)sc1C(=O)c1c(F)cccc1F [Example G177],45,23,10,–,–,–,–,"HCT-116 % Inhibition at 0.1 μM ([1]; HCT-116, at 0.1 μM): 24%"
"Nc1nc(Nc2ccc(C(=O)NCCN3CC=CC3)cc2)sc1C(=O)c1c(F)cccc1F [Example A45, 4-[4-Amino-5-(2,6-difluoro-benzoyl)-thiazol-2-ylamino]-N-[2-(2,5-dihydro-pyrrol-1-yl)-ethyl]-benzamide Dihydrochloride Salt]",–,–,–,–,–,–,–,IC50 [1]: 86 nM; Ki [2]: 7 nM; Ki [3]: 48 nM
"Nc1nc(Nc2ccc(C(=O)NCC(O)CO)cc2)sc1C(=O)c1c(Cl)cccc1Cl (centres unmarked) [Example B3, 4-[4-Amino-5-(2,6-dichloro-benzoyl)-thiazol-2-ylamino]-N-(2,3-dihydroxy-propyl)-benzamide]",–,–,–,–,–,–,–,IC50 [1]: 18000 nM; Ki [2]: 8 nM; Ki [3]: 66 nM
Cc1ccc(CNC(=O)c2ccc(Nc3nc(N)c(C(=O)c4c(F)cccc4F)s3)cc2)o1 [Example G250],–,–,–,31,72,39,39,–
C=CCNC(=O)c1ccc(Nc2nc(N)c(C(=O)c3c(F)cccc3F)s2)cc1 [Example G219],–,–,–,8,52,13,10,–
N#CCc1ccc(NC(=O)c2ccc(Nc3nc(N)c(C(=O)c4c(F)cccc4F)s3)cc2)cc1 [Example G321],–,–,–,11,51,19,1,–
CCOc1ccc(NC(=O)c2ccc(Nc3nc(N)c(C(=O)c4c(F)cccc4F)s3)cc2)cc1 [Example G313],–,–,–,10,57,12,11,–
CCC(NC(=O)c1ccc(Nc2nc(N)c(C(=O)c3c(F)cccc3F)s2)cc1)c1ccccc1 (centres unmarked) [Example G151],94,7,16,–,–,–,–,"HCT-116 % Inhibition at 0.1 μM ([1]; HCT-116, at 0.1 μM): 27%"

Compound,"HCT-116 % Inhibition at 0.25 μM ([1]; HCT-116, at 0.25 μM) [%]",CDK4 % Inhibition at 0.03 μM ([2]; at 0.03 μM) [%],CDK2 % Inhibition at 0.03 μM ([3]; at 0.03 μM) [%],"HCT-116 % Inhibition at 0.1 μM ([1]; HCT-116 cells, 0.1 μM compound) [%]","HCT-116 % Inhibition at 0.25 μM [1, 4] [%]",CDK4 % Inhibition at 0.03 μM ([2]; 0.03 μM compound) [%],CDK2 % Inhibition at 0.03 μM ([3]; 0.03 μM compound) [%],also measured
CC1CCCCN1CCCNC(=O)c1ccc(Nc2nc(N)c(C(=O)c3c(F)cccc3F)s2)cc1 (centres unmarked) [Example G303],–,–,–,18,72,45,2,–
"Nc1nc(Nc2ccc(C(=O)Nc3ccc(CCO)cc3)cc2)sc1C(=O)c1c(F)cccc1F [Example A24, 4-[4-Amino-5-(2,6-difluoro-benzoyl)-thiazol-2-ylamino]-N-[4-(2-hydroxy-ethyl)-phenyl]-benzamide]",–,–,–,–,–,–,–,IC50 [1]: 160 nM; Ki [2]: 94 nM; Ki [3]: 100 nM
CNC(=O)c1ccccc1NC(=O)c1ccc(Nc2nc(N)c(C(=O)c3c(F)cccc3F)s2)cc1 [Example G161],57,7,13,–,–,–,–,"HCT-116 % Inhibition at 0.1 μM ([1]; HCT-116, at 0.1 μM): 0%"
CCN(CC)C(=O)c1ccc(Nc2nc(N)c(C(=O)c3c(F)cccc3F)s2)cc1 [Example C232],–,–,–,9,53,19,9,–
Nc1nc(Nc2ccc(C(=O)N(CCCO)Cc3ccccn3)cc2)sc1C(=O)c1c(F)cccc1F [Example G243],–,–,–,31,40,11,18,–
CCCCOc1ccc(NC(=O)c2ccc(Nc3nc(N)c(C(=O)c4c(F)cccc4F)s3)cc2)cc1 [Example G205],–,–,–,12,52,7,1,–
COc1ccc(CNC(=O)c2ccc(Nc3nc(N)c(C(=O)c4c(F)cccc4F)s3)cc2)cc1OC [Example G345],–,–,–,22,36,6,−2,–
CN(CC#N)C(=O)c1ccc(Nc2nc(N)c(C(=O)c3c(F)cccc3F)s2)cc1 [Example G195],47,26,20,–,–,–,–,"HCT-116 % Inhibition at 0.1 μM ([1]; HCT-116, at 0.1 μM): 17%"
Nc1nc(Nc2ccc(C(=O)N3CCC4(CC3)OCCO4)cc2)sc1C(=O)c1c(F)cccc1F [Example G34],53,9,8,–,–,–,–,–
"Cn1cnc(CNC(=O)c2ccc(Nc3nc(N)c(C(=O)c4c(F)cccc4F)s3)cc2)c1 [Example A63, 4-[4-Amino-5-(2,6-difluoro-benzoyl)-thiazol-2-ylamino]-N-(1-methyl-imidazol-4-yl-methyl)-benzamide Trifluoroacetic Acid Salt]",–,–,–,–,–,–,–,IC50 [1]: 1600 nM; Ki [2]: 18 nM; Ki [3]: 15.3 nM
CN(C(=O)c1ccc(Nc2nc(N)c(C(=O)c3c(F)cccc3F)s2)cc1)C1CCCCC1 [Example G187],48,12,−2,–,–,–,–,"HCT-116 % Inhibition at 0.1 μM ([1]; HCT-116, at 0.1 μM): 16%"
"C[C@H](CN1CCCCC1)NC(=O)c1ccc(Nc2nc(N)c(C(=O)c3c(F)cccc3F)s2)cc1 [Example A46, 4-[4-Amino-5-(2,6-difluoro-benzoyl)-thiazol-2-ylamino]-N-(1R-methyl-2-piperidin-1-yl-ethyl)-benzamide Trifluoroacetate Salt]",–,–,–,–,–,–,–,IC50 [1]: 86 nM; Ki [2]: 15 nM; Ki [3]: 220 nM
Nc1nc(Nc2ccc(C(=O)NCCc3ccc(Cl)cc3)cc2)sc1C(=O)c1c(F)cccc1F [Example G266],–,–,–,28,30,7,0,–
CCC(C)CN(CCO)C(=O)c1ccc(Nc2nc(N)c(C(=O)c3c(F)cccc3F)s2)cc1 (centres unmarked) [Example G299],–,–,–,10,49,−7,−11,–
CCN(CCO)C(=O)c1ccc(Nc2nc(N)c(C(=O)c3c(F)cccc3F)s2)cc1 [Example G25],52,10,−16,–,–,–,–,–
Nc1nc(Nc2ccc(C(=O)N3CCCC(O)C3)cc2)sc1C(=O)c1c(F)cccc1F (centres unmarked) [Example G49],57,4,7,–,–,–,–,–
